Experimental data from ChEMBL document CHEMBL6096673, “In Pursuit of Lead Innovation: Pharmaceutically Important and Distinct Amide-Free Succinate Dehydrogenase Inhibitors” (J Med Chem, 2025).
≈ marks a conversion by molar mass, not a printed value.

How the values were obtained:
Rhizoctonia solani = experiment: Antifungal activity against Rhizoctonia solani; assay type: functional, organism-based
Liver carboxylesterase = molecular target: T1, Liver carboxylesterase (Sus scrofa, UniProt Q29550); experiment: Inhibition of porcine liver carboxylesterase
T1 sequence (Q29550 whole entry): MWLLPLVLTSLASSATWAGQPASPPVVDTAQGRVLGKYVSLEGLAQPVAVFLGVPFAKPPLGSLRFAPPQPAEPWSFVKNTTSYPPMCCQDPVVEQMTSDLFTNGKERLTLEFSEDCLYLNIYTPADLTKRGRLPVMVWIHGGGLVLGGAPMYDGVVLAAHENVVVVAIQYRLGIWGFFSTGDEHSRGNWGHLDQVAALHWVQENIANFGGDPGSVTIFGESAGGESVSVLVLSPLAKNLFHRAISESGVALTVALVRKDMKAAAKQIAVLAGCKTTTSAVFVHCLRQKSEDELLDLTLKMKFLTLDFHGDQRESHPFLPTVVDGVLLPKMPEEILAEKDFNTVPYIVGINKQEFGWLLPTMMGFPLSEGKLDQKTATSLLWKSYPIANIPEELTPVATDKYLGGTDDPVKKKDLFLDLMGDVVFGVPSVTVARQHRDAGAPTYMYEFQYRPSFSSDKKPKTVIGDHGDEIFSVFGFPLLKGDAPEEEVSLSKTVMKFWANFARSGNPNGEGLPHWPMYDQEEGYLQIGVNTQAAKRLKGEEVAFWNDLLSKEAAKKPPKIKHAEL

[1] = system: Trichophyton mentagrophytes; experiment: Antifungal activity against Trichophyton mentagrophytes; assay type: functional, organism-based
Plasmodium falciparum = experiment: Antiplasmodial activity against Plasmodium falciparum; assay type: functional, organism-based
[2] = Binding affinity to carboxylesterase (unknown origin) assessed as inhibition constant by fluorescence analysis; parameters: species or system Homo sapiens
Fusarium graminearum = experiment: Antifungal activity against Gibberella zeae; assay type: functional, organism-based
Alternaria solani = experiment: Antifungal activity against Alternaria solani; assay type: functional, organism-based
Botrytis cinerea = experiment: Antifungal activity against Botrytis cinerea; assay type: functional, organism-based
Sclerotinia sclerotiorum [3] = experiment: Antifungal activity against Sclerotinia sclerotiorum; assay type: functional, organism-based
Sclerotinia sclerotiorum [4] = experiment: Antifungal activity against Sclerotinia sclerotiorum assessed as inhibition of fungal growth; assay type: functional, organism-based

Compound: Cn1cc(/C=N\Oc2cccc(F)c2)c(C(F)F)n1
- IC50 (Rhizoctonia solani): 1.35 µg/mL (≈ 5.01 µM)

Compound: Cn1cc(/C=N\Oc2cccc(Br)c2)c(C(F)F)n1
- IC50 (Rhizoctonia solani): 0.21 µg/mL (≈ 0.636 µM)

Compound: COc1nc(O)c(C(=O)[C@@H](C)C[C@H](C)[C@H](Cl)CCl)c(O)c1OC
- IC50 (Liver carboxylesterase): 22.4 nM

Compound: COc1nc(O)c(C(=O)[C@H](C)C[C@H](C)[C@@H](Cl)CCl)c(O)c1OC
- IC50 (Liver carboxylesterase): 2000 nM

Compound: CC[C@@H](C)C[C@H](C)C(=O)c1c(O)nc(OC)c(OC)c1O
- IC50 (Liver carboxylesterase): 2100 nM

Compound: C=CCC/C=C\C=C/CCCCCCC1CC[C@@H]([C@@H]2CC[C@@H](CC(=O)OC)OO2)O1 (single isomer, unassigned)
- IC50 (Liver carboxylesterase): < 1000 nM

Compound: Cc1cc(O)c2c(c1)O[C@@]1(C)CC[C@H]3C(C)(C)CCC[C@]34CO[C@@H]2[C@H]41 [SICCANIN]
- IC50 [1]: 0.3 µg/mL (≈ 0.876 µM)
- IC50 (Plasmodium falciparum): 8400 nM

Compound: O=C(CC(=O)C(F)(F)F)c1cccs1
- Ki [2]: 610 nM

Compound: COc1nc(O)c(C(=O)[C@@H](C)C[C@H](C)[C@H](C)Cl)c(O)c1OC
- IC50 (Liver carboxylesterase): 110 nM

Compound: Fc1ccc(C2C=C(c3ccc4c(c3)OCO4)NC(=S)N2)cc1 (configuration not stated)
- EC50 (Fusarium graminearum): 0.57 µg/mL (≈ 1.74 µM)
- EC50 (Alternaria solani): 0.07 µg/mL (≈ 0.213 µM)
- EC50 (Botrytis cinerea): 0.44 µg/mL (≈ 1.34 µM)

Compound: CCOC(=O)C(C#N)C(CC(=O)c1ccc(Br)cc1)c1ccco1 (configuration not stated)
- EC50 (Sclerotinia sclerotiorum [3]): 3.3 µg/mL (≈ 8.46 µM)

Compound: Cn1cc(/C=N/Oc2cccc(F)c2)c(C(F)F)n1
- IC50 (Rhizoctonia solani): 2.94 µg/mL (≈ 10.9 µM)

Compound: C=CCC/C=C\C=C/CCCCCC[C@H]1CC[C@H]([C@@H]2CC[C@@H](CC(=O)OC)OO2)O1
- IC50 (Liver carboxylesterase): < 1000 nM

Compound: COc1nc(O)c(C(=O)[C@@H](C)C[C@@H](C)[C@@H](Cl)CCl)c(O)c1OC
- IC50 (Liver carboxylesterase): 7 nM

Compound: COc1nc(O)c(C(=O)CC[C@H](C)[C@@H](Cl)CCl)c(O)c1OC
- IC50 (Liver carboxylesterase): 315 nM

Compound: COC(=O)C1=C(C)OC(N)=C(C#N)C1c1ccc(Cl)s1 (configuration not stated)
- IC50 (Rhizoctonia solani): 1.06 µg/mL (≈ 3.41 µM)

Compound: Cn1cc(/C=N/Oc2cccc(I)c2)c(C(F)F)n1
- IC50 (Rhizoctonia solani): 1.57 µg/mL (≈ 4.16 µM)

Compound: Cn1cc(/C=N\Oc2cccc(I)c2)c(C(F)F)n1
- IC50 (Rhizoctonia solani): 1.43 µg/mL (≈ 3.79 µM)

Compound: Cc1ccc(-c2cc(-c3ccco3)nc(C)n2)cc1
- EC50 (Sclerotinia sclerotiorum [3]): 0.07 µg/mL (≈ 0.28 µM)

Compound: Cc1ccc(-c2cc(-c3ccc(Cl)cc3)nc(-n3cccn3)n2)o1
- EC50 (Sclerotinia sclerotiorum [3]): 0.08 µg/mL (≈ 0.238 µM)

Compound: Cn1cc(/C=N/Oc2cccc(Br)c2)c(C(F)F)n1
- IC50 (Rhizoctonia solani): 4.53 µg/mL (≈ 13.7 µM)

Compound: COc1cc(-c2ccc(Br)o2)cc(-c2ccc(Br)cc2)n1
- IC50 (Sclerotinia sclerotiorum [4]): 1.15 µg/mL (≈ 2.81 µM)

Compound: COc1[nH]c(=O)c(C(=O)[C@@H](C)C[C@H](C)[C@@H](Cl)CCl)c(O)c1OC [ATPENIN A5]
- IC50 (Liver carboxylesterase): 14 nM

Compound: O=C(NCCc1ncc(C(F)(F)F)cc1Cl)c1ccccc1C(F)(F)F [FLUOPYRAM]
- IC50 (Liver carboxylesterase): < 1000 nM
